Reference: ChEMBL document CHEMBL3124755, “Synthesis and tumor inhibitory activity of novel coumarin analogs targeting angiogenesis and apoptosis” (Eur J Med Chem, 2014)
pIC50: −log10 of the molar value. Activity calls are given as the source filed them. The calls are words filed in the database; no cut-off is given here.

Key:
[1] = Cytotoxicity against mouse DLA cells after 48 hrs by MTT assay; format: functional, cell-based
[2] = Cytotoxicity against mouse EAC cells after 48 hrs by MTT assay; format: functional, cell-based; conditions: Ehrlich
[3] = Cytotoxicity against mouse DLA cells after 48 hrs by trypan blue exclusion assay; format: functional, cell-based
[4] = (§1) Cytotoxicity against mouse EAC cells after 48 hrs by LDH release assay; format: functional, cell-based; conditions: Ehrlich
[5] = (§2) Cytotoxicity against mouse DLA cells after 48 hrs by LDH release assay; format: functional, cell-based
[6] = Cytotoxicity against mouse EAC cells after 48 hrs by trypan blue exclusion assay; format: functional, cell-based; conditions: Ehrlich
[7] = tested on: Ehrlich; assay: Antitumor activity against mouse EAC cells allografted in Swiss albino mouse assessed as DNA fragmentation in tumor cells at 75 mg/kg, ip 3 doses administered every alternate days after three days of tumor growth; format: functional, organism-based; parameters: dose 75 mg/kg
[8] = tested on: Ehrlich; assay: Antitumor activity against mouse EAC cells allografted in Swiss albino mouse assessed as inhibition of tumor growth at 75 mg/kg, ip 3 doses administered every alternate days after three days of tumor growth; format: functional, organism-based; parameters: dose 75 mg/kg
[9] = tested on: DLA; assay: Antitumor activity against mouse DLA cells allografted in Swiss albino mouse assessed as tumor regression at 75 mg/kg, ip administered alternate days total of 10 doses measured on day 35 relative to untreated control; format: functional, organism-based; parameters: dose 75 mg/kg
[10] = tested on: DLA; assay: Antitumor activity against mouse DLA cells allografted in Swiss albino mouse assessed as inhibition of tumor growth measuring tumor volume at 75 mg/kg, ip administered alternate days total of 10 doses relative to untreated control; format: functional, organism-based; parameters: dose 75 mg/kg
[11] = Antitumor activity against mouse EAC cells allografted in Swiss albino mouse assessed as increase in life span at 75 mg/kg, ip 3 doses administered every alternate days after three days of tumor growth (reference value: 10 days); format: functional, Ehrlich; conditions: route intraperitoneal
[12] = tested on: Mus musculus; assay: Toxicity in Swiss albino mouse assessed as urea level at 75 mg/kg, ip administered for 10 days (reference value: 42 +/- 2.78 mg/dl); format: organism-based; parameters: dose 75 mg/kg, route intraperitoneal; conditions: in vivo, 240 h
[13] = tested on: Mus musculus; assay: Toxicity in Swiss albino mouse assessed as creatinine level at 75 mg/kg, ip administered for 10 days (reference value: 0.59 +/- 1.05 mg/dl); format: organism-based; parameters: dose 75 mg/kg, route intraperitoneal; conditions: in vivo, 240 h
[14] = tested on: Ehrlich; assay: Antitumor activity against ip dosed mouse EAC cells allografted in Swiss albino mouse assessed as decrease in body weight administered 3 doses every alternate days after three days of tumor growth; format: functional, organism-based
[15] = tested on: Mus musculus; assay: Antiangiogenic activity in mouse EAC cells allografted Swiss albino mouse model assessed as decrease in microvessel density in peritoneum at 75 mg/kg, ip 3 doses administered every alternate days after three days of tumor growth by hematoxylin and eosin staining method; format: functional, organism-based; parameters: dose 75 mg/kg; conditions: Ehrlich
[16] = tested on: Mus musculus; assay: Toxicity in Swiss albino mouse assessed as alkaline phosphatase level at 75 mg/kg, ip administered for 10 days (reference value: 128.55 +/- 2.55 IU/L); format: organism-based; parameters: dose 75 mg/kg, route intraperitoneal; conditions: in vivo, 240 h
[17] = tested on: Ehrlich; assay: Antitumor activity against mouse EAC cells allografted in Swiss albino mouse assessed as membrane blebbing of tumor cells at 75 mg/kg, ip 3 doses administered every alternate days after three days of tumor growth by Giemsa staining; format: functional, organism-based; parameters: dose 75 mg/kg
[18] = tested on: Mus musculus; assay: Toxicity in Swiss albino mouse assessed as change in liver morphology at 75 mg/kg, ip administered for 10 days relative to untreated control; format: organism-based; parameters: dose 75 mg/kg, route intraperitoneal; conditions: in vivo, 240 h
[19] = tested on: Ehrlich; assay: Antitumor activity against mouse EAC cells allografted in Swiss albino mouse assessed as decrease in ascites fluid secretion at 75 mg/kg, ip 3 doses administered every alternate days after three days of tumor growth; format: functional, organism-based; parameters: dose 75 mg/kg
[20] = tested on: Ehrlich; assay: Antitumor activity against mouse EAC cells allografted in Swiss albino mouse assessed as irregular tumor cell shape at 75 mg/kg, ip 3 doses administered every alternate days after three days of tumor growth by Giemsa staining; format: functional, organism-based; parameters: dose 75 mg/kg
[21] = Antitumor activity against mouse DLA cells allografted in Swiss albino mouse assessed as increase in lifespan at 75 mg/kg, ip administered alternate days total of 10 doses relative to untreated control; format: functional; conditions: route intraperitoneal
[22] = Antitumor activity against mouse EAC cells allografted in Swiss albino mouse model assessed as increase in body weight at 75 mg/kg, ip 3 doses administered every alternate days after three days of tumor growth measured after 10 days; format: functional, Ehrlich; conditions: route intraperitoneal
[23] = tested on: Mus musculus; assay: Toxicity in Swiss albino mouse assessed as change in spleen morphology at 75 mg/kg, ip administered for 10 days relative to untreated control; format: organism-based; parameters: dose 75 mg/kg, route intraperitoneal; conditions: in vivo, 240 h
[24] = tested on: Chorioallantoic membrane; assay: In vivo antiangiogenic activity in 12 days fertilized chicken embryo chorioallantoic membrane model assessed as inhibition of rVEGF165-induced angiogenesis at 10 uM by photographic analysis relative to control; format: functional, organism-based; conditions: Gallus gallus
[25] = tested on: Ehrlich; assay: as §1; format: functional, cell-based
[26] = tested on: Ehrlich; assay: Antitumor activity against mouse EAC cells allografted in Swiss albino mouse assessed as formation of apoptotic bodies in tumor cells at 75 mg/kg, ip 3 doses administered every alternate days after three days of tumor growth by Giemsa staining; format: functional, organism-based; parameters: dose 75 mg/kg
[27] = tested on: Mus musculus; assay: Antiangiogenic activity in mouse EAC cells allografted Swiss albino mouse model assessed as decrease in peritoneal angiogenesis at 75 mg/kg, ip 3 doses administered every alternate days after three days of tumor growth; format: functional, organism-based; parameters: dose 75 mg/kg; conditions: Ehrlich
[28] = tested on: Ehrlich; assay: Antitumor activity against mouse EAC cells allografted in Swiss albino mouse assessed as condensed nucleus in tumor cells at 75 mg/kg, ip 3 doses administered every alternate days after three days of tumor growth; format: functional, organism-based; parameters: dose 75 mg/kg
[29] = tested on: DLA; assay: as §2; format: functional, cell-based
[30] = tested on: Ehrlich; assay: Antitumor activity against mouse EAC cells allografted in Swiss albino mouse assessed as tumor cell shrinkage at 75 mg/kg, ip 3 doses administered every alternate days after three days of tumor growth; format: functional, organism-based; parameters: dose 75 mg/kg
[31] = tested on: Chorioallantoic membrane; assay: Ex vivo antiangiogenic activity in 2 days fertilized chicken embryo chorioallantoic membrane model assessed as inhibition of rVEGF165-induced angiogenesis at 10 uM after 72 hrs by photographic analysis relative to control; format: functional, tissue-based; conditions: Gallus gallus

In the case of Cc1ccc(OCC(=O)NNC(=O)c2cc3ccccc3oc2=O)c(C(=O)c2ccc(F)cc2)c1, the pIC50 [1] was 4.36, the pIC50 [2] was 4.40 and the pIC50 [3] was 4.34. It also gave a pIC50 [4] of 4.39, a pIC50 [5] of 4.34 and a pIC50 [6] of 4.36.
Cc1ccc(OCC(=O)NNC(=O)c2cc3ccccc3oc2=O)c(C(=O)c2ccccc2)c1 showed a pIC50 [1] of 4.06, a pIC50 [2] of 4.11 and a pIC50 [3] of 4.05. The pIC50 [4] was 4.09, the pIC50 [5] was 4.06 and the pIC50 [6] was 4.06.
For Cc1ccc(OCC(=O)NNC(=O)c2cc3ccccc3oc2=O)c(C(=O)c2ccc(Br)cc2)c1, the pIC50 [1] was 4.04, the pIC50 [2] was 4.06 and the pIC50 [3] was 4.02. It also gave a pIC50 [4] of 4.05, a pIC50 [5] of 4.02 and a pIC50 [6] of 4.04.
For Cc1ccc(OCC(=O)NNC(=O)c2cc3ccccc3oc2=O)c(C(=O)c2ccc(Cl)cc2)c1, the pIC50 [1] was 4.23, the pIC50 [2] was 4.25 and the pIC50 [3] was 4.21. The pIC50 [4] was 4.24, the pIC50 [5] was 4.22 and the pIC50 [6] was 4.24.
In the case of COc1ccc(C(=O)c2cc(C)ccc2OCC(=O)NNC(=O)c2cc3ccccc3oc2=O)cc1, the pIC50 [1] was 4.38, the pIC50 [2] was 4.42 and the pIC50 [3] was 4.36. For the same molecule, the pIC50 [4] was 4.39, the pIC50 [5] was 4.36 and the pIC50 [6] was 4.39.
Work on Cc1ccc(OCC(=O)NNC(=O)c2cc3ccccc3oc2=O)c(C(=O)c2ccccc2Cl)c1 yielded a pIC50 [1] of 4.27, a pIC50 [2] of 4.34 and a pIC50 [3] of 4.26. The pIC50 [4] was 4.32, the pIC50 [5] was 4.26 and the pIC50 [6] was 4.32.
For Cc1ccc(OCC(=O)NNC(=O)c2cc3ccccc3oc2=O)c(C(=O)c2cccc(Br)c2)c1, the pIC50 [1] was 4.16, the pIC50 [2] was 4.18 and the pIC50 [3] was 4.14. It also gave a pIC50 [4] of 4.17, a pIC50 [5] of 4.16 and a pIC50 [6] of 4.16.
With O=c1[nH]cc(F)c(=O)[nH]1 [FLUOROURACIL] the pIC50 [1] was 4.80, the pIC50 [2] was 4.84 and the pIC50 [3] was 4.84. The pIC50 [4] was 4.79, the pIC50 [5] was 4.80 and the pIC50 [6] was 4.79.
Work on Cc1ccc(OCC(=O)NNC(=O)c2cc3ccccc3oc2=O)c(C(=O)c2cccc(Cl)c2)c1 yielded a pIC50 [1] of 4.18, a pIC50 [2] of 4.19 and a pIC50 [3] of 4.16. The pIC50 [4] was 4.18, the pIC50 [5] was 4.17 and the pIC50 [6] was 4.17.
In the case of Cc1ccc(OCC(=O)NNC(=O)c2cc3ccccc3oc2=O)c(C(=O)c2ccccc2Br)c1, the Activity [7] was “Active”, the pIC50 [1] was 5.00 and the TGI [8] was “Active”. The Activity [9] was “Active”, the TGI [10] was “Active” and the pIC50 [2] was 5.10. It also gave a Time [11] of 23 days, an Activity [12] of 39 mg/dL and an Activity [13] of 0.5 mg/dL. The Activity [14] was “Dose-dependent effect”, the Activity [15] was “Active” and the Activity [16] was 132.65 IU/L. For the same molecule, the Activity [17] was “Active”, the Activity [18] was “Non-toxic” and the Activity [19] was “Active”. For the same molecule, the Activity [20] was “Active”, the “fold change (FC)” value [21] was 3 and the Activity [22] was 10%. For the same molecule, the Activity [23] was “Non-toxic”, the inhibition [24] was “Active” and the pIC50 [3] was 5.00. The pIC50 [4] was 5.03, the Activity [25] was “Dose-dependent effect” and the Activity [26] was “Active”. The Activity [27] was “Active”, the Activity [28] was “Active” and the pIC50 [5] was 4.97. The Activity [29] was “Dose-dependent effect”, the Activity [30] was “Active” and the pIC50 [6] was 5.05. The inhibition [31] was “Active”.
For Cc1ccc(C(=O)c2cc(C)ccc2OCC(=O)NNC(=O)c2cc3ccccc3oc2=O)cc1, the pIC50 [1] was 4.07, the pIC50 [2] was 4.11 and the pIC50 [3] was 4.06. For the same molecule, the pIC50 [4] was 4.09, the pIC50 [5] was 4.06 and the pIC50 [6] was 4.08.
